The record followed here is patent US20240393292A1, “ALLERGY ANTIGEN AND EPITOPE THEREOF” (HOYU CO., LTD., priority 2019, published 2024).

For the assay, the system named is IgE antibodies from patients. Description: Wheat epitope mapping (2): overlapping 10-amino-acid peptide fragments shifted by one amino acid.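 For Rank of partial sequence as epitope binding to IgE antibody: key = sequence deemed particularly important within the common 15-residue sequence.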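 For epitope sequence binding to IgE antibody, rank (Key/Preferably/More preferably): key of grades: preferably = shorter partial sequence still acting as epitope; more preferably = sequence improving IgE binding; key = particularly important sequence.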 Format: binding, human. In outline:
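Residual binding was banded as <30% none, 30–<50% poor, 50–<70% somewhat poor and ≥70% retained, relative to the parent overlapping sequence set to 100%. Values were chemiluminescent IgE signals from patient sera after subtracting secondary-antibody-only controls. The peptides were spot-synthesised 10-mers shifted by one amino acid.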

The mark [1] stands for this setting: serum of patient P12 (WDEIA), sequence without X.
[2] abbreviates: serum of patient P9 (WDEIA), sequence without X.
The mark [3] stands for this setting: serum of patient P26 (WDEIA), partial sequence.
[4] abbreviates: serum of patient P35 (WDEIA), sequence without X.
Setting [5] is: serum of patient P29 (WDEIA), partial sequence.
Setting [6] is: serum of patient P2 (WDEIA), sequence without X.
Setting [7] is: serum of patient P36 (WDEIA), partial sequence.
The mark [8] stands for this setting: serum of patient P50 (child, general immediate type allergy to wheat), sequence without X.

Take “1933 (VPLVQQ; REGION 1..6: note = epitope) [compound 1933]”: the “epitope sequence binding to IgE antibody, rank (Key/Preferably/More preferably)” value (serum of patient P17 (WDEIA)) is on record as “Key”.

For the substance “1548 (QVPLVQQQ; REGION 1..8: note = epitope) [compound 1548]”, the “Rank of partial sequence as epitope binding to IgE antibody” value (“Rank of partial sequence” below) (serum of patient P34 (WDEIA), sequence without X) is “Preferably”.

As to “1372 (QPLPPQQQ; REGION 1..8: note = epitope) [compound 1372]”, where the note is “serum of patient P4 (WDEIA), sequence without X”, the “Epitope sequence binding to IgE antibody, rank of the sequence” value is recorded as “Key”.

On to “2350 (YVTEIVL; REGION 1..7: note = epitope) [compound 2350]”, for which the “Epitope sequence binding to IgE antibody, rank of the sequence (Key/Preferably/More preferably)” value under setting [1] is reported as “More preferably”.

For the substance “2508 (SQVSF; REGION 1..5: note = epitope) [compound 2508]”, the “Epitope sequence binding to IgE antibody, rank of the sequence” value (serum of patient P22 (WDEIA), partial sequence) was “Key”.

Take “1539 (LVQQQQFLG; REGION 1..9: note = epitope) [compound 1539]”: where the note is “serum of patient P17 (WDEIA), sequence without X”, the “Rank of partial sequence” value was “More preferably”.

For “1894 (VRTLQ; REGION 1..5: note = epitope) [compound 1894]”, where the note is “serum of patient G9 (adult, general immediate type allergy to wheat)”, the “epitope sequence binding to IgE antibody, rank (Key/Preferably/More preferably)” value was “Key”.

Regarding “1573 (PQQPQQPFP; REGION 1..9: note = epitope) [compound 1573]”, the “Rank of partial sequence” value (serum of patient P16 (WDEIA), sequence without X) was “Preferably”.

Turning to “1962 (QQQFPGQQ; REGION 1..8: note = epitope) [compound 1962]”, the “epitope sequence binding to IgE antibody, rank (Key/Preferably/More preferably)” value (serum of patient P32 (WDEIA)) is listed as “Key”.

For the substance “1179 (QQFPPQQ; REGION 1..7: note = epitope) [compound 1179]”, the “Epitope sequence binding to IgE antibody, rank of the sequence” value under setting [1] is reported as “Preferably”.

“2347 (VTEI; REGION 1..4: note = epitope) [compound 2347]”: the “Epitope sequence binding to IgE antibody, rank of the sequence (Key/Preferably/More preferably)” value under setting [2] is reported as “Key”.

“1949 (VPLVQQ; REGION 1..6: note = epitope) [compound 1949]”: the “epitope sequence binding to IgE antibody, rank (Key/Preferably/More preferably)” value (serum of patient P24 (WDEIA)) is on record as “Key”.

Regarding “2542 (SSQVSF; REGION 1..6: note = epitope) [compound 2542]”, the “Epitope sequence binding to IgE antibody, rank of the sequence” value (serum of patient G7 (adult, general immediate type allergy to wheat), partial sequence) is listed as “Key”.

For “2567 (QLVQQ; REGION 1..5: note = epitope) [compound 2567]”, the “Epitope sequence binding to IgE antibody, rank of the sequence” value under setting [3] is “Key”.

For the substance “1556 (LVQQQ; REGION 1..5: note = epitope) [compound 1556]”, the “Rank of partial sequence” value under setting [4] is reported as “Key”.

As to “2743 (YKIGGIGTV; REGION 1..9: note = epitope) [compound 2743]”, the “Epitope sequence binding to IgE antibody, rank of the sequence” value (serum of patient P33 (WDEIA), partial sequence) is “Key”.

In the case of “1755 (YLKK; REGION 1..4: note = epitope) [compound 1755]”, the “epitope sequence binding to IgE antibody, rank (Key/Preferably/More preferably)” value (serum of patient P7 (WDEIA)) is given as “Key”.

With “1468 (YLQPQQP; REGION 1..7: note = epitope) [compound 1468]”, the “Rank of partial sequence” value (serum of patient P26 (WDEIA), sequence without X) is reported as “Key”.

As for “2734 (YKIGG; REGION 1..5: note = epitope) [compound 2734]”, the “Epitope sequence binding to IgE antibody, rank of the sequence” value under setting [5] is listed as “Key”.

Consider “2260 (SRLLR; REGION 1..5: note = epitope) [compound 2260]”, for which the “Epitope sequence binding to IgE antibody, rank of the sequence (Key/Preferably/More preferably)” value (serum of patient G1 (adult, general immediate type allergy to wheat), sequence without X) is given as “Key”.

In the case of “1605 (AQLEAIRS; REGION 1..8: note = epitope) [compound 1605]”, the “Rank of partial sequence” value (serum of patient P10 (WDEIA), sequence without X) is listed as “More preferably”.

“2689 (YKGPTL; REGION 1..6: note = epitope) [compound 2689]”: for the setting “serum of patient P30 (WDEIA), partial sequence”, the “Epitope sequence binding to IgE antibody, rank of the sequence” value is on record as “Key”.

Turning to “1300 (SINVENVED; REGION 1..9: note = epitope) [compound 1300]”, the “Epitope sequence binding to IgE antibody, rank of the sequence (Key/Preferably/More preferably/Further preferably)” value under setting [6] is “Preferably”.

Take “2344 (HDIDRCAY; REGION 1..8: note = epitope) [compound 2344]”: the “Epitope sequence binding to IgE antibody, rank of the sequence (Key/Preferably/More preferably)” value under setting [2] is reported as “Key”.

With “1684 (FVPISG; REGION 1..6: note = epitope) [compound 1684]”, for the setting “serum of patient G9 (adult, general immediate type allergy to wheat), sequence without X”, the “Rank of partial sequence” value is listed as “Key”.

With “1715 (KEAA; REGION 1..4: note = epitope) [compound 1715]”, under “serum of patient P35 (WDEIA)”, the “epitope sequence binding to IgE antibody, rank (Key/Preferably/More preferably)” value was “Key”.

As for “1952 (QFPGQQ; REGION 1..6: note = epitope) [compound 1952]”, the “epitope sequence binding to IgE antibody, rank (Key/Preferably/More preferably)” value (serum of patient P24 (WDEIA)) is reported as “Key”.

In the case of “1629 (YNPD; REGION 1..4: note = epitope) [compound 1629]”, the “Rank of partial sequence” value (serum of patient P27 (WDEIA), sequence without X) was “Key”.

As to “1765 (YLKKVGYN; REGION 1..8: note = epitope) [compound 1765]”, the “epitope sequence binding to IgE antibody, rank (Key/Preferably/More preferably)” value (serum of patient P30 (WDEIA)) is listed as “Key”.

Take “2594 (QLVQQL; REGION 1..6: note = epitope) [compound 2594]”: under setting [7], the “Epitope sequence binding to IgE antibody, rank of the sequence” value is reported as “Preferably”.

On to “2297 (ERFEK; REGION 1..5: note = epitope) [compound 2297]”, for which, under setting [8], the “Epitope sequence binding to IgE antibody, rank of the sequence (Key/Preferably/More preferably/Further preferably)” value is reported as “Key”.

As for “1252 (PQQPP; REGION 1..5: note = epitope) [compound 1252]”, the “Epitope sequence binding to IgE antibody, rank of the sequence” value under setting [4] is “Key”.

Regarding “2512 (SQVSF; REGION 1..5: note = epitope) [compound 2512]”, under setting [7], the “Epitope sequence binding to IgE antibody, rank of the sequence” value is “Key”.

As to “2509 (QVSF; REGION 1..4: note = epitope) [compound 2509]”, the “Epitope sequence binding to IgE antibody, rank of the sequence” value under setting [5] is “Key”.

As for “2565 (QSTYQLVQ; REGION 1..8: note = epitope) [compound 2565]”, the “Epitope sequence binding to IgE antibody, rank of the sequence” value (serum of patient P25 (WDEIA), partial sequence) is given as “Key”.

For “1624 (FVPISG; REGION 1..6: note = epitope) [compound 1624]”, the “Rank of partial sequence” value (serum of patient P25 (WDEIA), sequence without X) is reported as “Key”.

Regarding “1886 (TVRTLQRT; REGION 1..8: note = epitope) [compound 1886]”, the “epitope sequence binding to IgE antibody, rank (Key/Preferably/More preferably)” value (serum of patient P36 (WDEIA)) was “Key”.

With “2253 (RNYRVAI; REGION 1..7: note = epitope) [compound 2253]”, the “Epitope sequence binding to IgE antibody, rank of the sequence (Key/Preferably/More preferably)” value (serum of patient P52 (child, general immediate type allergy to wheat), sequence without X) is recorded as “Preferably”.

As to “1527 (QVPLVQQQQ; REGION 1..9: note = epitope) [compound 1527]”, under setting [1], the “Rank of partial sequence” value is reported as “More preferably”.

For “1763 (LKKVGYN; REGION 1..7: note = epitope) [compound 1763]”, the “epitope sequence binding to IgE antibody, rank (Key/Preferably/More preferably)” value (serum of patient P27 (WDEIA)) is “Key”.

As for “2614 (AKPLL; REGION 1..5: note = epitope) [compound 2614]”, where the note is “serum of patient P2 (WDEIA), partial sequence”, the “Epitope sequence binding to IgE antibody, rank of the sequence” value is listed as “Key”.

On to “1617 (VPFVPISG; REGION 1..8: note = epitope) [compound 1617]”, for which the “Rank of partial sequence” value (serum of patient P20 (WDEIA), sequence without X) was “Preferably”.

Regarding “2247 (LLRGIRNYRV; REGION 1..10: note = epitope) [compound 2247]”, under setting [8], the “Epitope sequence binding to IgE antibody, rank of the sequence (Key/Preferably/More preferably/Further preferably)” value was “Key”.

Take “1560 (QQQFLGQQ; REGION 1..8: note = epitope) [compound 1560]”: under setting [8], the “Rank of partial sequence” value is given as “Key”.

Regarding “1764 (KEVSSYLKKV; REGION 1..10: note = epitope) [compound 1764]”, for the setting “serum of patient P30 (WDEIA)”, the “epitope sequence binding to IgE antibody, rank (Key/Preferably/More preferably)” value was “Key”.

“1830 (LPKFL; REGION 1..5: note = epitope) [compound 1830]”: the “epitope sequence binding to IgE antibody, rank (Key/Preferably/More preferably)” value (serum of patient G6 (adult, general immediate type allergy to wheat)) is “Key”.

Turning to “1868 (TVRTLQ; REGION 1..6: note = epitope) [compound 1868]”, where the note is “serum of patient P28 (WDEIA)”, the “epitope sequence binding to IgE antibody, rank (Key/Preferably/More preferably)” value was “Key”.

For “1689 (SQVIIM; REGION 1..6: note = epitope) [compound 1689]”, the “Rank of partial sequence” value (serum of patient P14 (WDEIA), sequence without X) is given as “Key”.

“1301 (SINVEN; REGION 1..6: note = epitope) [compound 1301]”: the “Epitope sequence binding to IgE antibody, rank of the sequence (Key/Preferably/More preferably/Further preferably)” value under setting [6] is “Key”.

As for “1227 (PQQPPC; REGION 1..6: note = epitope) [compound 1227]”, the “Epitope sequence binding to IgE antibody, rank of the sequence” value under setting [1] is on record as “Key”.

Regarding “2552 (QLVQQLCC; REGION 1..8: note = epitope) [compound 2552]”, where the note is “serum of patient P7 (WDEIA), partial sequence”, the “Epitope sequence binding to IgE antibody, rank of the sequence” value was “Preferably”.

Regarding “2684 (YKGPTL; REGION 1..6: note = epitope) [compound 2684]”, the “Epitope sequence binding to IgE antibody, rank of the sequence” value under setting [3] was “Key”.

Regarding “2223 (IRNYRVA; REGION 1..7: note = epitope) [compound 2223]”, for the setting “serum of patient P8 (WDEIA), sequence without X”, the “Epitope sequence binding to IgE antibody, rank of the sequence (Key/Preferably/More preferably)” value is reported as “Key”.

With “2289 (GGIDK; REGION 1..5: note = epitope) [compound 2289]”, the “Epitope sequence binding to IgE antibody, rank of the sequence (Key/Preferably/More preferably)” value (serum of patient P33 (WDEIA), sequence without X) is “Key”.
